Read-outs that look alike come from different tables or passages of the source.
Tests used:
CDK4 = CDK4 (Homo sapiens, UniProt P11802); assay: CDK4 HTRF; type: biochemical
p-pRb/S780 = p-pRb/S780 ELISA Cellular Assay (CDK4 ELISA assay); type: cell-based; details: cells treated for 24 hrs
Experimental: Biological Activity p-pRb/S780 ELISA Cellular Assay
Maxisorp plates (Nunc 442404) are coated with 50 ul of 1 ug/mL total phospholated Retinoblast Protein (pRb) antibody (4H1 Cell Signaling 9309L) diluted in DPBS (Phosphate Buffered Saline) overnight at 4° C. The next day plates are blocked with Superblock in TBST (Pierce 37535) for one hour to overnight—changing block once during that time. Cells are plated at 50-60% confluency in a 96 well plate (Corning 3585) in 100 uL complete media (media containing fetal bovine serum (Gibco 1600-044), 2 mM L-Glutamine (Gibco 25030), and 1% Penicillin/Streptomycin (Gibco 15140-122) and grown overnight in a humidified chamber at 37° C. and 5% CO2. Compounds (in DMSO) are diluted in media to create a 7 point dilution series of compound with concentrations ranging from 110 uM to 0.027 uM. 10 ul of the diluted compounds are added to the cells, with final concentrations on cells ranging from 10 uM to 0.002 uM. Cells are treated for 24 hrs in a humidified chamber at 37° C. and 5% CO2. Following compound incubation, cells are lysed with 40 uL/well lysis buffer (50 mM Tris-HCL pH 7.5 (Invitrogen 15567-027), 120 mM NaCl (Promega V4221), 1 mM EDTA (Gibco 15575-038), 6 mM EGTA (Fisher 02783-100), 1% Nonidet P40 (Fluka R02771). Plates are placed on Titerplate shaker (Labline model 4625) for 5 minutes at 4° C. to lyse cells. After lysis, 10 ul of cell lysate and 50 ul 1×PBS/10% Superblock (Gibco 10010 and Pierce 37535) is added to each well of the precoated and blocked Maxisorp plate and allowed to bind at room temperature for 2 hours on Oribtron Rotator II (Boekel Industries Model 260250). Plates are then washed 3× with 1×TBST (Teknova T9201) using Biotek platewasher equipped with a Biostack. The final wash is not aspirated. The final wash is removed by flicking off and tapping plate on paper towels. ppRbS780 antibody (Cell Signaling 9307L) is diluted 1:1000 in 1×PBS/10% Superblock (Gibco 10010 and Pierce 37535) and 50 ul is added to each well. Plates are then incubated 1 hour on Oribtron Rotator II (Boekel Industries Model 260250). Plates are then washed as previously described. Goat anti-rabbit HRP (Promega W401B) is diluted 1:2500 1×PBS/10% Superblock (Gibco 10010 and Pierce 37535) and 50 ul is added to each well. Plates are then incubated 30 minutes on Oribtron Rotator II. Plates are then washed as previously described. 50 uL Ultra TMB ELISA (Pierce 34028) is then added to each well. Plates are incubated 5-20 minutes until blue color develops. 50 ul 2M Sulfuric acid (Mallinckrodt 2468-46) is then added to each well to stop the reaction. Absorbance at 450 nm for each plate is read on Spectramax Plus (Molecular Devices).

CDK2 cyA = CDK2 cyA (Homo sapiens, UniProt P24941); assay: CDK2 cyA IMAP; type: biochemical
hCDK1/B = hCDK1/B (Homo sapiens, UniProt P06493); assay: hCDK1/B; type: biochemical
Sequence of hCDK1/B (P06493 whole entry): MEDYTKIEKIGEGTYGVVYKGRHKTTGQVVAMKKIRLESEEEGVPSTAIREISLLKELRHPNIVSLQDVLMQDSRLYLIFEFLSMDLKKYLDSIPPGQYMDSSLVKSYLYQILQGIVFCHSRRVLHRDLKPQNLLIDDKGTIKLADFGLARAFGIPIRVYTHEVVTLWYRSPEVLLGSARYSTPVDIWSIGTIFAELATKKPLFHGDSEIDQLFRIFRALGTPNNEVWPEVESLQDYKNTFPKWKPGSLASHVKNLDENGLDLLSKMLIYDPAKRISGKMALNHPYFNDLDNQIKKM
Sequence of hCDK1/B (P14635 whole entry partner): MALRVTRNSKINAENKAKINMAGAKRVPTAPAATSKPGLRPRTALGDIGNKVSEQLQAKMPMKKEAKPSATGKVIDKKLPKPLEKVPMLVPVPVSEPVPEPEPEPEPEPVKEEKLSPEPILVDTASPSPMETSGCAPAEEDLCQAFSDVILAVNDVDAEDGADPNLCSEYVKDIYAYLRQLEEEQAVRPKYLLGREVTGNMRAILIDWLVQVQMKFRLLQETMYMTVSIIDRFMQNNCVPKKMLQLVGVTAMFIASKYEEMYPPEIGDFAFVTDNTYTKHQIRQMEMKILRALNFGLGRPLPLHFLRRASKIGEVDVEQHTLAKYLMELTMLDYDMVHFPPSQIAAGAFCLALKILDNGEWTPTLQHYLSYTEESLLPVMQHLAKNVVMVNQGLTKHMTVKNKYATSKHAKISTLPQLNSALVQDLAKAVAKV

[1] = Table 2, read-out: CDK4 HTRF/ IC50
[2] = Table 2, read-out: p_pRb Cap EL/ IC50_ppRbinh
[3] = Table 2, read-out: CDK2cyA IMAP/ IC50
[4] = Table 1, read-out: CDK4 ELISA assay IC50
[5] = Table 1, read-out: CDK2 cyA IMAP

Sequence of CDK4 (P11802 whole entry): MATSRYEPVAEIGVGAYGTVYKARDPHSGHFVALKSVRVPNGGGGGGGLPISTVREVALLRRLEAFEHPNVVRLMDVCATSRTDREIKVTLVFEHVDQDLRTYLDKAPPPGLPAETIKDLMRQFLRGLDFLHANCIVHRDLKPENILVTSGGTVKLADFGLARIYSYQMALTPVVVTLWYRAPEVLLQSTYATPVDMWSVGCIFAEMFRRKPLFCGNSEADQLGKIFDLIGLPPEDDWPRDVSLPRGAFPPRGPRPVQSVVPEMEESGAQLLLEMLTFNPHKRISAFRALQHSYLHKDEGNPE
Sequence of CDK4 (P24385 whole entry partner): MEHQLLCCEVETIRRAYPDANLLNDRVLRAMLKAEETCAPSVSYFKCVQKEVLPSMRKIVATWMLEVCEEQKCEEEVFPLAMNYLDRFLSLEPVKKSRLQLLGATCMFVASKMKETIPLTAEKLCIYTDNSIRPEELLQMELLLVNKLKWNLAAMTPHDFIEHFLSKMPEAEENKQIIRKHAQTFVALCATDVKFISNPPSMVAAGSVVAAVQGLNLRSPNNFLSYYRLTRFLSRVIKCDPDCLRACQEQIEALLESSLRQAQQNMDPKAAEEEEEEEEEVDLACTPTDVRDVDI

| SMILES | IC50 (CDK4; [1]) [µM] | IC50 (p-pRb/S780; [2]) [µM] | IC50 (CDK2 cyA; [3]) [µM] | IC50 (hCDK1/B; Table 2) [µM] | IC50 (CDK4; Table 1, read-out: CDK4 HTRF) [µM] | IC50 (p-pRb/S780; [4]) [µM] | IC50 (CDK2 cyA; [5]) [µM] | IC50 (hCDK1/B; Table 1) [µM] |
| --- | --- | --- | --- | --- | --- | --- | --- | --- |
| Cc1n[nH]cc1-c1ccnc(NCCN2CCCC2)n1 [Example 109] | < 10 | < 15 | ≥ 15 | ≥ 15 |  |  |  |  |
| CC(=O)NCCNc1nccc(-c2c[nH]nc2C)n1 [Example 123] | < 5 | < 15 | < 15 | < 15 |  |  |  |  |
| Cc1n[nH]cc1-c1ccnc(NCc2ccccc2)n1 [Example 93] | < 5 | < 15 | < 15 | < 10 |  |  |  |  |
| CC(C)c1[nH]ncc1-c1ccnc(NCC2CCNCC2)c1 [Example 47] |  |  |  |  | < 10 | < 15 | ≥ 15 | ≥ 15 |
| COCCNc1nccc(-c2c[nH]nc2C)n1 [Example 120] | < 15 | < 15 | ≥ 15 | ≥ 15 |  |  |  |  |
| Cc1n[nH]cc1-c1ccnc(NCC(=O)OC(C)(C)C)n1 [Example 129] | < 15 | < 15 | ≥ 15 | ≥ 15 |  |  |  |  |
| Cc1n[nH]cc1-c1ccnc(NCc2ccccn2)n1 [Example 126] | < 15 | < 15 | ≥ 15 | ≥ 15 |  |  |  |  |
| CCCCNc1nccc(-c2c[nH]nc2C)n1 [Example 119] | < 5 | < 15 | < 10 | < 10 |  |  |  |  |
| CC(C)c1[nH]ncc1-c1ccnc(NCCCN2CCOCC2)c1 [Example 36] |  |  |  |  | < 10 | < 15 | ≥ 15 | ≥ 15 |
| Cc1n[nH]cc1-c1ccnc(NCCN2CCOCC2)n1 [Example 99] | < 10 | < 15 | ≥ 15 | ≥ 15 |  |  |  |  |
| Cc1n[nH]cc1-c1ccnc(NCc2ccco2)n1 [Example 122] | < 10 | < 15 | ≥ 15 | ≥ 15 |  |  |  |  |
| Cc1n[nH]cc1-c1ccnc(NCCCN2CCCC2=O)n1 [Example 131] | < 15 | < 15 | ≥ 15 | ≥ 15 |  |  |  |  |
| Cc1ccc(CNc2nccc(-c3c[nH]nc3C)n2)cc1 [Example 117] | < 10 | < 15 | ≥ 15 | ≥ 15 |  |  |  |  |
| c1cc(-c2cn[nH]c2C2CCCC2)cc(NCCCN2CCOCC2)n1 [Example 65] |  |  |  |  | < 5 | < 15 | ≥ 15 | ≥ 15 |
| CC(C)c1[nH]ncc1-c1ccnc(NCCCNC2CCCCC2)c1 [Example 51] |  |  |  |  | < 5 | < 15 | ≥ 15 | ≥ 15 |
| CC(C)c1n[nH]cc1-c1ccnc(NC2CCN(C)CC2)n1 [Example 139] | < 0.05 | < 5 | < 1 | < 0.5 |  |  |  |  |
| CC(C)c1n[nH]cc1-c1ccnc(NC2CCN(Cc3ccccc3)CC2)n1 [Example 85] | < 0.05 | < 10 | < 1 | < 0.5 |  |  |  |  |
| CC(C)c1[nH]ncc1-c1ccnc(NCCCN(C)C)c1 [Example 16] |  |  |  |  | < 5 | < 15 | ≥ 15 | ≥ 15 |
| Cc1n[nH]cc1-c1ccnc(NC2CCC2)n1 [Example 101] | < 1 | < 15 | < 5 | < 5 |  |  |  |  |

| SMILES | IC50 (CDK4; [1]) [µM] | IC50 (p-pRb/S780; [2]) [µM] | IC50 (CDK2 cyA; [3]) [µM] | IC50 (hCDK1/B; Table 2) [µM] | IC50 (CDK4; Table 1, read-out: CDK4 HTRF) [µM] | IC50 (p-pRb/S780; [4]) [µM] | IC50 (CDK2 cyA; [5]) [µM] | IC50 (hCDK1/B; Table 1) [µM] |
| --- | --- | --- | --- | --- | --- | --- | --- | --- |
| c1cc(-c2cn[nH]c2C2CCCC2)cc(NC2CCC2)n1 [Example 52] |  |  |  |  | < 0.5 |  | < 0.5 | < 5 |
| CC(C)c1[nH]ncc1-c1ccnc(NCCCn2ccnc2)c1 [Example 41] |  |  |  |  | < 5 |  | < 1 | < 0.5 |
| CC(CCCC(C)(C)O)Nc1nccc(-c2c[nH]nc2C(C)C)n1 (stereo not shown) [Example 145] | < 0.5 |  | < 5 | < 1 |  |  |  |  |
| Cc1ccccc1CNc1nccc(-c2c[nH]nc2C(C)C)n1 [Example 164] | < 0.5 |  | < 1 | < 0.5 |  |  |  |  |
| Cc1ccccc1CNc1cc(-c2cn[nH]c2C(C)(C)C)ccn1 [Example 76] |  |  |  |  | < 10 |  | ≥ 15 | < 15 |
| Cc1nnc(CCNc2nccc(-c3c[nH]nc3C(C)C)n2)[nH]1 [Example 161] | < 0.5 |  | < 5 | < 5 |  |  |  |  |
| CC(C)c1n[nH]cc1-c1ccnc(N[C@H]2CCc3ccccc32)n1 [Example 175] | < 1 |  | < 5 | < 5 |  |  |  |  |
| Cc1[nH]nc(C(C)C)c1-c1ccnc(NC2CCN(C)CC2)n1 [Example 185] | < 5 |  | ≥ 15 | ≥ 15 |  |  |  |  |
| CN1CCC(Nc2cc(-c3cn[nH]c3C(C)(C)C)ccn2)CC1 [Example 77] |  |  |  |  | < 15 |  | < 15 | ≥ 15 |
| CCC(C)c1[nH]ncc1-c1ccnc(NCc2ccccc2C)c1 (stereo not shown) [Example 81] |  |  |  |  | < 1 |  | < 5 | < 5 |
| CC(C)c1[nH]ncc1-c1ccnc(NCCc2ccccn2)c1 [Example 29] |  |  |  |  | < 1 |  | < 5 | < 10 |
| CC(C)c1[nH]ncc1-c1ccnc(NCc2ccco2)c1 [Example 24] |  |  |  |  | < 1 |  | < 5 | < 5 |
| Cc1n[nH]cc1-c1ccnc(NC2CCc3ccccc32)n1 (stereo not shown) [Example 112] | < 0.5 |  | < 10 | < 10 |  |  |  |  |
| CC(C)(C)c1[nH]ncc1-c1ccnc(NC2CCc3ccccc32)c1 (stereo not shown) [Example 75] |  |  |  |  | < 15 |  | ≥ 15 | ≥ 15 |
| CC(C)c1[nH]ncc1-c1ccnc(NCCc2ccccc2)c1 [Example 37] |  |  |  |  | < 0.5 |  | < 1 | < 5 |
| CC(C)CNc1cc(-c2cn[nH]c2C(C)C)ccn1 [Example 9] |  |  |  |  | < 0.5 |  | < 0.5 | < 0.5 |
| CCC(C)c1[nH]ncc1-c1ccnc(NC2CCc3ccccc32)c1 (stereo not shown) [Example 82] |  |  |  |  | < 5 |  | < 5 | < 5 |
| CN1CCC(Nc2cc(-c3cn[nH]c3C3CCCC3)ccn2)CC1 [Example 79] |  |  |  |  | < 5 |  | ≥ 15 | < 10 |

Source: patent US8367687B2, “Pyrazole derivatives” (Novartis AG, priority 2007, dated 2013)
